Reference: patent US11331290B2, “Niclosamide for the treatment of cancer metastasis” (Max-Delbrück-Centrum für Molekulare Medizin in der …, priority 2011, dated 2022)

System: HCT116-CMVp-LUC cells
Assay: HCT116-CMVp-LUC intrasplenic xenograft: liver metastasis, tumor growth, overall survival
Assay type: in vivo, mice
Settings: for median survival: control 24 days
Experimental: All experiments were performed in accordance with the UKCCCR guidelines and approved by the responsible local authorities (State Office of Health and Social Affairs, Berlin, Germany). HCT116-CMVp-LUC cells (3×10^6 cells per mouse, resuspended in 50 μL PBS) were intrasplenically transplanted into 6-week-old female nonobese diabetic-severe combined immunodeficiency (NOD-SCID) mice. Mice were randomly assigned to 3 groups and reatment of mice started 24 hours after cell transplantation. Mice of the control group (n=9) were treated with daily doses of solvent. Mice of the second group (n=9) were daily treated intraperitoneally with 20 mg per kg niclosamide. Mice of the third group (n=9) were treated intraperitoneally with two doses of 15 mg per kg niclosamide per day. The experimental endpoint was reached when mice appeared moribund and/or the spleen tumor was palpable. This was the case with the majority of control mice on day 24. For long-term in vivo experiments mice randomly assigned to 3 groups. Mice of the control group (n=6) were treated intraperitoneally with daily doses of solvent. Mice of the second group (n=6) were daily treated intraperitoneally with 20 mg per kg niclosamide. Mice of the third group (n=6) were daily treated intraperitoneally for 24 days with 20 mg per kg niclosamide and for the residual days with solvent. Mice were killed by cervical dislocation when tumor reached the maximum in accordance with the local authorities.
Spleen (as the transplantation site) and liver (as a metastasis target organ) were removed. The amount of S100A4 mRNA in the tumor was determined by Trizol RNA isolation of tumor cryosections and quantitative real-time RT-PCR. The level of metastasis was evaluated by scoring. For each liver, a score was calculated as the sum of the volumes of the individual metastases. For each metastasis the formula [width2]×length was applied.
For in vivo luminescence imaging mice were anesthetized with 35 mg per kg Hypnomidate (Jassen-Cilag, Neuss, Germany) and received intraperitoneally 150 mg per kg D-luciferin (Biosynth, Staad, Switzerland) dissolved in sterile PBS. Imaging was performed with the NightOWL LB 981 system (Berthold Technologies, Bad Wildbad, Germany) with exposure times of 1 second and 20 seconds. ImageJ version 2.3 was used for color coding of signal intensity (presenting a 256 grayscale) and overlay pictures.
All calculations and statistical analyses were performed with GraphPad Prism version 4.01. Student t test was used for comparison of only two groups. One-way analysis of variance (ANOVA) was applied for comparing the control group with several treated groups followed by Bonferroni post hoc multiple comparisons. In cell cytotoxicity assay the half-maximal effective concentration to which cell viability was reduced to 50% (EC50) values were calculated by sigmoidal dose-response curve fit of x=log(x) transformed data. Kaplan-Meier analysis was used to plot overall survival and differences in curves were analyzed by Logrank test. All tests were two-sided, and P values less than 0.05 were considered to be statistically significant. If not stated otherwise, means are reported with 95% confidence interval.
(A) In vivo luminescence imaging of metastasis under niclosamide treatment. HCT116-CMVp-LUC cells stably expressing firefly luciferase (LUC) were intrasplenically transplanted into mice (per group n=4) followed by daily intraperitoneal treatment with 20 mg per kg niclosamide. For luminescence imaging, mice were anesthetized at the indicated days and received intraperitoneally D-luciferin. Exposure time for lateral and ventral imaging was 20 seconds per picture. In situ imaging and imaging of isolated organs was performed for 1 second per picture exposure time. Signal intensity of grayscale images (256 scale) were color coded (from low to high signal intensity: blue, green, yellow, red, white) and overlayed with bright field picture. […]

## O=C(Nc1ccc([N+](=O)[O-])cc1Cl)c1cc(Cl)ccc1O [niclosamide, 2′,5-dichloro-4′-nitrosalicylanilide]
20 mg per kg daily intraperitoneally, 24 days
  liver metastasis score, mean % of control: 37.9%
20 mg per kg daily intraperitoneally, day 24
  liver metastasis signal, in vivo luminescence imaging: No or only tiny liver metastasis signals
20 mg per kg i.p., continuously and discontinuously, vs solvent-treated animals
  size of liver metastases: clearly reduced
20 mg per kg i.p., either continuously or discontinuously, vs solvent-treated mice
  spleen tumor growth: clearly delayed
2×15 mg per kg per day intraperitoneally, 24 days
  liver metastasis score, mean % of control: 36.1%
Continuous treatment
  liver metastasis, mean difference control vs treatment: 89.1%
  median survival ratio control vs treatment: 0.56
Continuous treatment (20 mg per kg i.p. daily)
  liver metastasis score, mean % of control: 10.9%
Continuous treatment: 20 mg per kg i.p. daily
  median survival: 43 days
Discontinuous treatment
  liver metastasis, mean difference control vs treatment: 65.1%
  median survival ratio control vs treatment: 0.52
Discontinuous treatment (20 mg per kg i.p. for 24 days, then solvent)
  liver metastasis score, mean % of control: 34.9%
Discontinuous treatment: 20 mg per kg i.p. daily for 24 days, then solvent
  median survival: 46.5 days
